Measured values: US20200031811A1, “SUBSTITUTED MONO- AND POLYAZANAPHTHALENE DERIVATIVES AND THEIR USE” (Basilea Pharmaceutica International AG, priority 2015, published 2020)

Tests used:
[1] = tested on: human pancreatic cancer cell line MiaPaCa2 (ATCC CRL-1420); assay: Cell growth assay (CellTiterGlo, 72 hours); assay type: cell-based; settings: MIA PaCa-2, MiaPaCa2 cells, 72 hours, read-out: IC50 MiaPaCa
Summary of the method: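 MiaPaCa2 cells (10^3/well) seeded in supplemented DMEM overnight, then exposed in quadruplicate to compound at 100 down to 0.1 μM for 72 h at 37° C. Growth read by CellTiterGlo luminescence, medium-only background subtracted, normalised to untreated cells; IC50 = concentration reducing growth to 50%.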

MNK1 = biological target: T1, MNK1 (Homo sapiens, UniProt Q9BUB5); assay: MNK inhibition assay (Z-Lyte kinase assay, Ser/Thr 7 peptide); assay type: biochemical; settings: recombinant GST-MNK1, 3 hours at 31° C.
T1 construct: purchased Life Technologies or Carna Biosciences PV6023 or 02-145; host or cells: baculovirus infected insect cells
T1 sequence (Q9BUB5 whole entry): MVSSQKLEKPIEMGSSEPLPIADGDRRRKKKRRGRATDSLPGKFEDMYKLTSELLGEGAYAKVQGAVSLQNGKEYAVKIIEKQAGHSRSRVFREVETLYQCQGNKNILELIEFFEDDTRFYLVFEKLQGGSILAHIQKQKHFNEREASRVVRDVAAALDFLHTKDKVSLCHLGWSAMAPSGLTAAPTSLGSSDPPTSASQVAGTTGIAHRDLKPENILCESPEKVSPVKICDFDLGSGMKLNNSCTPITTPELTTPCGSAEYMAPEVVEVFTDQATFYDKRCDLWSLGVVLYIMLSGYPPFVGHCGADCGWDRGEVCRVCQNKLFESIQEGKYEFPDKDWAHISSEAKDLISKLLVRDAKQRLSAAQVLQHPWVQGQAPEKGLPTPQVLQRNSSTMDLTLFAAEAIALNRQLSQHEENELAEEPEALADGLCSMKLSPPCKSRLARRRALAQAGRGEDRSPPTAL
Summary of the method: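 Recombinant GST-MNK1 from baculovirus-infected insect cells, Z-Lyte Ser/Thr 7 peptide, enzyme set for ~30% phosphorylation in buffer-only wells; 3 hours at 31° C. Compounds at 50–10000 nM (potent ones down to 0.5 nM), at least duplicate. IC50 from % substrate phosphorylation versus buffer-only wells, fluorescence read-out.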

SMILES	IC50 [1] [µM]	IC50 (MNK1) [µM]
NC1CCN(Cc2cc3c(-c4cc5ccccc5o4)cncc3cc2F)CC1 [Example 249]	7.86	0.044
NC1CCN(Cc2cc3c(-c4cc5ccccc5o4)cncc3cc2Cl)CC1 [Example 250]	4.94	0.064
NC1CCN(Cc2cc3c(-c4ccccc4)cncc3cc2Cl)CC1 [Example 251, 1-[(7-Chloro-4-phenyl-6-isoquinolyl)methyl]piperidin-4-amine]	4.55	0.055
NC1CCN(Cc2cc([N+](=O)[O-])c3cncc(-c4cc5ccccc5o4)c3c2)CC1 [Example 252, 1-[[4-(Benzofuran-2-yl)-8-nitro-6-isoquinolyl]methyl]piperidin-4-amine]	20.5	0.308
Nc1cc2cncc(-c3cc4ccccc4o3)c2cc1CN1CCC(N)CC1 [Example 254, 6-[(4-Amino-1-piperidyl)methyl]-4-(benzofuran-2-yl)isoquinolin-7-amine]	6.99	0.057
Nc1ncc(-c2cc3ccccc3o2)c2cc(CN3CCC(N)CC3)cc(Cl)c12 [Example 256, 6-[(4-Amino-1-piperidyl)methyl]-4-(benzofuran-2-yl)-8-chloro-isoquinolin-1-amine]	1.22	0.216
Nc1ncc(-c2ccccc2)c2cc(CN3CCC(N)CC3)cc(Cl)c12 [Example 257]	4.87	0.159
COc1cc(CN2CCC(N)CC2)cc2c(-c3cc4ccccc4o3)cnc(N)c12 [Example 258, 6-[(4-Amino-1-piperidyl)methyl]-4-(benzofuran-2-yl)-8-methoxy-isoquinolin-1-amine]	3.57	0.149
COc1cc(CN2CCC(N)CC2)cc2c(-c3ccccc3)cnc(N)c12 [Example 259]	1.3	0.066
Nc1ncc2ccc(CN3CCNCC3)cc2c1-c1cc2ccccc2o1 [Example 260, 4-(Benzofuran-2-yl)-6-(piperazin-1-ylmethyl)isoquinolin-3-amine]	17.5	1.59
Nc1ncc2ccc(CNc3ccnc4ccccc34)cc2c1-c1cc2ccccc2o1 [Example 261, 4-(Benzofuran-2-yl)-6-[(4-quinolylamino)methyl]isoquinolin-3-amine]	3.99	0.054
c1ccc2oc(-c3cncc4ccc(CNc5ccnc6ncccc56)cc34)cc2c1 [Example 262, N-[[4-(Benzofuran-2-yl)-6-isoquinolyl]methyl]-1,8-naphthyridin-4-amine]	6.8	0.028
NC1CCN(Cc2ccc3cncc(-c4cc5ccccc5o4)c3c2)CC1(F)F (stereo not drawn) [Example 263, 1-[[4-(Benzofuran-2-yl)-6-isoquinolyl]methyl]-3,3-difluoro-piperidin-4-amine]	9.97	0.703
Nc1ncc(-c2ccccc2)c2cc(CN3CCC(N)CC3)c(Cl)cc12 [Example 264, 6-[(4-Amino-1-piperidyl)methyl]-7-chloro-4-phenyl-isoquinolin-1-amine]	5.93	0.194
NC1CCN(Cc2cc3c(-c4ccccc4)cncc3cc2O)CC1 [Example 265, 6-[(4-Amino-1-piperidyl)methyl]-4-phenyl-isoquinolin-7-ol]	21.9	0.308
COc1cc2cncc(-c3ccccc3)c2cc1CN1CCC(N)CC1 [Example 266, 1-[(7-Methoxy-4-phenyl-6-isoquinolyl)methyl]piperidin-4-amine]	14.4	0.059
COc1cc2c(N)ncc(-c3ccccc3)c2cc1CN1CCC(N)CC1 [Example 267, 6-[(4-Amino-1-piperidyl)methyl]-7-methoxy-4-phenyl-isoquinolin-1-amine]	3.93	0.34
N[C@@H]1CCN(Cc2ccc3cncc(-c4cc5ccccc5o4)c3c2)C[C@H]1O [Example 268, (3R,4R/3S,4S)-4-Amino-1-[[4-(benzofuran-2-yl)-6-isoquinolyl]methyl]piperidin-3-ol]	5.33	0.053
N[C@@H]1CCN(Cc2ccc3cncc(-c4cc5ccccc5o4)c3c2)C[C@@H]1O [Example 269, (3S,4R/3R,4S)-4-Amino-1-[[4-(benzofuran-2-yl)-6-isoquinolyl]methyl]piperidin-3-ol]	9.03	0.141

More lines, now with the values ahead:

IC50 [1] [µM]	IC50 (MNK1) [µM]	SMILES
13.7	0.934	CO[C@H]1CN(Cc2ccc3cncc(-c4cc5ccccc5o4)c3c2)CC[C@H]1N [Example 270, (3S,4R/3R,4S)-1-[[4-(Benzofuran-2-yl)-6-isoquinolyl]methyl]-3-methoxy-piperidin-4-amine]
4.29	0.288	CO[C@@H]1CN(Cc2ccc3cncc(-c4cc5ccccc5o4)c3c2)CC[C@H]1N [Example 271]
7.25	0.0054	c1ccc2oc(-c3cncc4ccc(CNc5ccnc6[nH]ccc56)cc34)cc2c1 [Example 272, N-[[4-(Benzofuran-2-yl)-6-isoquinolyl]methyl]-1H-pyrrolo[2,3-b]pyridin-4-amine]
30.4	0.767	NC1CCN(Cc2ccc3cncc(-c4cc5cccnc5o4)c3c2)CC1 [Example 273, 1-[(4-Furo{2,3-b}pyridin-2-yl-6-isoquinolyl)methyl]piperidin-4-amine]
3.98	0.624	NC1CCN(Cc2ccc3cncc(-c4cc5ccncc5o4)c3c2)CC1 [Example 274]
5.07	0.175	NC1CCN(Cc2ccc3cncc(-c4cc5cnccc5o4)c3c2)CC1 [Example 275]
15.5	0.161	NC1CCN(Cc2ccc3cncc(-c4cc5ncccc5o4)c3c2)CC1 [Example 276]
5.76	0.131	c1ccc2oc(C3CNNc4ccc(CNc5ccncc5)cc43)cc2c1 (stereo not drawn) [Example 277, N-[[4-(Benzofuran-2-yl)-1,2,3,4-tetrahydrocinnolin-6-yl]methyl]pyridin-4-amine]
3.57	0.043	Nc1cc(NCc2ccc3nncc(-c4cc5ccccc5o4)c3c2)ccn1 [Example 278, N4-[[4-(Benzofuran-2-yl)cinnolin-6-yl]methyl]pyridine-2,4-diamine]
5.63	0.116	COc1c(CN2CCC(N)CC2)cc2c(-c3cc4ccccc4o3)cncc2c1OC [Example 279, 1-[[4-(Benzofuran-2-yl)-7,8-dimethoxy-6-isoquinolyl]methyl]piperidin-4-amine]
5.66	0.536	NC1CCN(Cc2cc3c(-c4cc5ccccc5o4)cncc3c(Cl)c2Cl)CC1 [Example 280, 1-[[4-(Benzofuran-2-yl)-7,8-dichloro-6-isoquinolyl]methyl]piperidin-4-amine]
2.81	0.297	CCOc1cc(CN2CCC(N)CC2)cc2c(-c3cc4ccccc4o3)cncc12 [Example 281, 1-[[4-(Benzofuran-2-yl)-8-ethoxy-6-isoquinolyl]methyl]piperidin-4-amine]
4.63	0.152	COc1cc2cncc(-c3cc4ccccc4o3)c2cc1CN1CCC(N)CC1 [Example 282, 1-[[4-(Benzofuran-2-yl)-7-methoxy-6-isoquinolyl]methyl]piperidin-4-amine]
2.55	0.75	CC(C)Oc1cc(CN2CCC(N)CC2)cc2c(-c3cc4ccccc4o3)cncc12 [Example 283, 1-[[4-(benzofuran-2-yl)-8-isopropoxy-6-isoquinolyl]methyl]piperidin-4-amine]
